Assay results reported in paper PMC8088467 (Cell Proliferation, 2021).

System: Candida albicans SC5314
Test: Morphology assay (light microscope and SEM)
Format: cell-based
Details: 1 x 10^6 CFU/mL, RP medium, 8 hours 37°C; 200 nM TDNs, 20 µM His‐5 or 200 nM TDN/His‐5 (1:100); bright field images
Protocol: Candida albicans SC5314 (wild type) obtained from our laboratory were commercially from the American Type Culture Collection. ^34 Candida albicans strains were propagated on liquid or solid YPD medium at 30°C. The yeast cells used in all experiments were in the exponential growth phase (OD600 = 0.6). For inducing hyphae, C. albicans cells were grown in RPMI 1640 medium containing 2.5% foetal calf serum, 2 mM L‐glutamine, 20 mM HEPES and 16 mM sodium hydrogen carbonate (pH 7.0) (RP medium) at 37°C.
After fixation, the samples were dehydrated with a gradient series of ethanol. Specimens were observed under a Leica DM1000 microscope (Leica Microsystems) and a scanning electron microscope (Inspect F, FEI, America). ^40 , ^44

## Histatin 5
  Morphology of C. albicans (hyphae formation): more yeast cells and fewer hyphae
